Reference: US6849438B1, “Isolated and purified human soluble guanylyl cyclase α1/β1 (hsgcα1/β1)” (Vasopharm Biotech GmbH, priority 1998, dated 2005)

Target: T1, recombinant human sGC (rhsGCα1/rhsGCβ1) in intact Sf9 cells (Homo sapiens, UniProt Q02108+Q02153)
T1 construct: Thus, the complete hsGCα1 cDNA is under the control of the polyhedrin promotor (PHP); Thus, the complete hsGCβ1 cDNA is under the control of the polyhedrin promotor (PHP); expressed in transfected cells; host or cells: Sf9 insect cells coinfected with recombinant baculoviruses (pVL1393-derived)
T1 sequence (Q02108 1-690): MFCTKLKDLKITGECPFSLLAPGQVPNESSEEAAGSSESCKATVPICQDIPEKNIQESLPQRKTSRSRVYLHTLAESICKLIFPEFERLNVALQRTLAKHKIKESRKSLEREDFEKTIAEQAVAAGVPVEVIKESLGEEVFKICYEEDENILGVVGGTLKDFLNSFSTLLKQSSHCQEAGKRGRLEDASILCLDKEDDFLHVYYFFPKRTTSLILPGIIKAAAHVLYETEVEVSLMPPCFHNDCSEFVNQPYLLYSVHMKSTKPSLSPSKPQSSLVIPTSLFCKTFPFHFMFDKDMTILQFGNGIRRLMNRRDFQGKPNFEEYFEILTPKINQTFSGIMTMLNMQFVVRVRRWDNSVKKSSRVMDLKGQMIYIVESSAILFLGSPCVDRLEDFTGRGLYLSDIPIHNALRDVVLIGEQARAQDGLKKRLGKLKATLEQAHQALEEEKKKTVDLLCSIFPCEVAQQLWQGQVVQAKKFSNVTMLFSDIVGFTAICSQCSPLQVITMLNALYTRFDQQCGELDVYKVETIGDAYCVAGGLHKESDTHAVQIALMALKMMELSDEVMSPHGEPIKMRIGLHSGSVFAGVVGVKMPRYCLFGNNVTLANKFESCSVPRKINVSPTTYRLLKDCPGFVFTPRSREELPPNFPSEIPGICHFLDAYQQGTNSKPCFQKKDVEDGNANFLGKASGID
T1 sequence (Q02153 1-619): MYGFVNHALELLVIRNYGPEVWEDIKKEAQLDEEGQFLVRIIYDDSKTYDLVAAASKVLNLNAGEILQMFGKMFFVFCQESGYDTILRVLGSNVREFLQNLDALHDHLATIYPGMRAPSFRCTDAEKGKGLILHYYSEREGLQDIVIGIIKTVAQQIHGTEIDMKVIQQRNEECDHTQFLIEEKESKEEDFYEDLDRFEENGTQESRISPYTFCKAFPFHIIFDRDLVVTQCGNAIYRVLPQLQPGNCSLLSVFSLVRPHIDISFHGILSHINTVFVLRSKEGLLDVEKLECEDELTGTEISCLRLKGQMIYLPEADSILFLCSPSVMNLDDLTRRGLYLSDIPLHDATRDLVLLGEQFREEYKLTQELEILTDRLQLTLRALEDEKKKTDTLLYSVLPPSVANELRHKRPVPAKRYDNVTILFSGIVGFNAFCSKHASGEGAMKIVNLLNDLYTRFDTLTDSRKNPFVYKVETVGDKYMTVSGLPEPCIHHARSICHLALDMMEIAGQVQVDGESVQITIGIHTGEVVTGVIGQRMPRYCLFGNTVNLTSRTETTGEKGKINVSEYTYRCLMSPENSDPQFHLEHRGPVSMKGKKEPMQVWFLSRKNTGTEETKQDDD
Assay: cGMP content (RIA) in intact Sf9 cells coexpressing rhsGCα1 and rhsGCβ1
Format: cell-based
Method: For the production of functional heterodimeric human sGC, rhsGCα1 and rhsGCβ1 were coexpressed in Sf9 cells with recombinant baculoviruses. For this, Sf9 monolayer cultures [2.5×10^6 cells/dish, Ø 90 mm; supplements see example 2] were coinfected with a M.O.I. (multiplicity of infection) of 2 pfu/cell of each recombinant baculovirus (hsGCα1 and hsGCβ1; both without GST-tag) and cultivated for 48 hours at 27° C. The basal as well as the NO-stimulated activity of the sGC in the cells was determined by measurement of the cGMP content in the cells in the presence of the phosphodiesterase inhibitor IBMX (3-isobutyl-1-methylxanthine).
For the determination of the cGMP content, the culture media was replaced by Krebs-Ringer-buffer (KRB; […]; 4.74 mM KCI; 2.54 mM CaCl2; 1.19 mM MgSO4; 1.19 mM KH2PO4; 25 mM NaHCO3; 10 mM HEPES; pH 7.4; 0.1% BSA) which, in addition, contained 1 mM IBMX. The cells were incubated for one hour at 27° C. Then the cells were washed with ice-cold KRP and harvested in 1 ml ice-cold ethanol (80%) with a cell scraper. The cells were homogenized by sonication [see Example 3] and centrifuged at 20,000×g for 20 minutes. The supernatant was dried in a speed-vac and the residue resuspended in 25 mM TEA, pH 7.8. The cGMP content was determined by means of RIA (Biotrend).

Structure (SMILES) | influence on basal cGMP levels (basal, without SNP) | effect on stimulation of rhsGC with SNP (simultaneous incubation with ODQ and SNP) | increase of cGMP content (10 μM YC-1 for 2 minutes) [fold] | increase of cGMP content (100 μM YC-1, compared with 10 μM YC-1) | cGMP levels compared to stimulation with SNP alone (YC-1 simultaneously with 100 μM SNP)
O=c1onc2cnc3ccccc3n12 [ODQ, 1H-[1,2,4]oxadiazolo[4,3,-a]chinoxalin-1-on] | did not have an influence | inhibited |  |  | 
OCc1ccc(-c2nn(Cc3ccccc3)c3ccccc23)o1 [YC-1, 3-(5′-hydroxymethyl-2′-furyl)-1-benzylindazol] |  |  | 3.4 | the same effect | doubled
